# Data reported in the NIST ThermoML archive (doi:10.1021/je100861u).
# ± gives the expanded uncertainty stated by the source.
# Experiments:
# [1] = Liquid; Distillation
# [2] = refractive index (Na D-line) (dimensionless); conditions: 293.15 K; 101.33 kPa; Liquid; Standard Abbe refractometry
Compound,Normal boiling temperature [1],refractive index [2]
"CC(=O)C(C)O (centres undefined) [2,3-butanolone]",148.38 ± 0.54 °C,1.4198 ± 0.0008
CCCCOC(C)=O [butyl ethanoate],125.96 ± 0.5 °C,1.3941 ± 0.0007
